# Results: ChEMBL document CHEMBL5620379, “Discovery, SAR and mechanistic studies of quinazolinone-based acetamide derivatives in experimental visceral leishmaniasis” (Eur J Med Chem, 2023)
# Key:
# [1] = Toxicity in golden hamster infected with Leishmania donovani assessed as reduction in serum ALT level at 40 mg/kg ,po and measured after 28 days post infection (reference value: 81.58 IU/L); assay type: organism-based, Mesocricetus auratus; settings: in vivo, 672 h, time 28 day
# Leishmania donovani [2] = assay: Antileishmanial activity against Leishmania donovani infected in golden hamster assessed as inhibition of parasite growth in spleen at 80 mg/kg, po administered for 7 days and measured after 28 days by giemsa staining based analysis relative to control; assay type: functional; parameters: scale not given: the % may be the effect or the level left; settings: time 28 day
# Leishmania donovani [3] = assay: Antileishmanial activity against amastigote form of Leishmania donovani infected in BALB/c mouse assessed as inhibition of parasite growth in spleen at 10 mg/kg, po measured after 1 week post treatment by geimsa staining based analysis relative to control; assay type: functional; parameters: scale not given: the % may be the effect or the level left; settings: time 1 weeks
# [4] = Renal toxicity in golden hamster assessed as effect on urea level at 40 mg/kg, po measured after 28 days post infection; assay type: organism-based, Mesocricetus auratus; settings: in vivo, 672 h, time 28 day
# Leishmania donovani [5] = assay: Antileishmanial activity against Leishmania donovani infected in golden hamster assessed as inhibition of parasite growth in spleen at 40 mg/kg, po administered for 7 days and measured after 28 days by giemsa staining based analysis relative to control; assay type: functional; parameters: scale not given: the % may be the effect or the level left; settings: time 28 day
# Splenocyte [6] = assay: Immunostimulatory activity in mouse splenocyte assessed as fold increase in IL-12 synthesis at 10 to 40 mg/kg measured after 1 week by RT-PCR analysis; assay type: functional; settings: dose 10-40 mg/kg; time 1 weeks
# [7] = Stability of the compound in Tris-buffer at 10 ug/ml at pH 7.4 measured upto 120 min by HPLC analysis; assay type: physicochemical; settings: at 10 µg/mL, read-out: Stability
# Leishmania donovani [8] = assay: Antileishmanial activity against Leishmania donovani amastigotes infected in J774 macrophage assessed as inhibition of parasite growth incubated for 48 hrs by luciferase assay; assay type: functional, organism-based; settings: J774, 48 h
# J774 [9] = assay: Cytotoxicity against mouse J774 macrophage incubated for 72 hrs by MTT assay; assay type: functional
# [10] = Stability of the compound in stimulated intestinal fluid at 10 ug/ml at pH 6.8 measured after 120 min by HPLC analysis; assay type: ADME; settings: simulated intestinal fluid, at 10 µg/mL, read-out: Stability
# J774 [11] = assay: Cytotoxicity against mouse J774 cells at 12.5 uM incubated for 72 hrs by MTT assay relative to control; assay type: toxicity, cell-based; settings: j774, 72 h
# J774 [12] = assay: Cytotoxicity against mouse J774 cells at 25 uM incubated for 72 hrs by MTT assay relative to control; assay type: toxicity, cell-based; settings: j774, 72 h
# Leishmania donovani [13] = assay: Antileishmanial activity against Leishmania donovani amastigotes infected in J774 macrophage assessed as inhibition of parasite growth at 25 uM incubated for 48 hrs by luciferase assay relative to control; assay type: functional; parameters: scale not given: the % may be the effect or the level left
# J774 [14] = assay: Cytotoxicity against mouse J774 cells at 50 uM incubated for 72 hrs by MTT assay relative to control; assay type: toxicity, cell-based; settings: j774, 72 h
# [15] = Toxicity in BALB/c mouse assessed as effect on body weight at 10 to 40 mg/kg, po measured after 1 week; assay type: organism-based; settings: in vivo, 168 h, dose 10-40 mg/kg, time 1 weeks
# [16] = Toxicity in BALB/c mouse assessed as effect on skin texture at 10 to 40 mg/kg, po measured after 1 week; assay type: organism-based; settings: in vivo, 168 h, dose 10-40 mg/kg, time 1 weeks
# Leishmania donovani [17] = assay: Antileishmanial activity against amastigote form of Leishmania donovani infected in BALB/c mouse assessed as inhibition of parasite growth in spleen at 20 mg/kg, po measured after 1 week post treatment by geimsa staining based analysis relative to control; assay type: functional; parameters: scale not given: the % may be the effect or the level left; settings: time 1 weeks
# Leishmania donovani [18] = assay: Antileishmanial activity against Leishmania donovani infected in golden hamster assessed as inhibition of parasite growth in liver at 80 mg/kg, po administered for 7 days and measured after 28 days by giemsa staining based analysis relative to control; assay type: functional; parameters: scale not given: the % may be the effect or the level left; settings: time 28 day
# [19] = Renal toxicity in golden hamster assessed as effect on creatinine level at 40 mg/kg, po measured after 28 days post infection; assay type: organism-based, Mesocricetus auratus; settings: in vivo, 672 h, time 28 day
# Leishmania donovani [20] = assay: Antileishmanial activity against amastigote form of Leishmania donovani infected in BALB/c mouse assessed as inhibition of parasite growth in liver at 10 mg/kg, po measured after 1 week post treatment by geimsa staining based analysis relative to control; assay type: functional; parameters: scale not given: the % may be the effect or the level left; settings: time 1 weeks
# Leishmania donovani [21] = assay: Antileishmanial activity against amastigote form of Leishmania donovani infected in BALB/c mouse assessed as inhibition of parasite growth in liver at 20 mg/kg, po measured after 1 week post treatment by geimsa staining based analysis relative to control; assay type: functional; parameters: scale not given: the % may be the effect or the level left; settings: time 1 weeks
# Leishmania donovani [22] = assay: Antileishmanial activity against Leishmania donovani promastigotes measured after 48 hrs by MTT assay; assay type: functional, organism-based
# [23] = Toxicity in golden hamster infected with Leishmania donovani assessed as reduction in serum AST level at 40 mg/kg ,po and measured after 28 days post infection (reference value: 82.72 IU/L); assay type: organism-based, Mesocricetus auratus; settings: in vivo, 672 h, time 28 day
# Splenocyte [24] = assay: Immunostimulatory activity in mouse splenocyte assessed as decrease in IL-10 secretion at 10 to 40 mg/kg measured after 1 week by RT-PCR analysis relative to control; assay type: functional; parameters: scale not given: the % may be the effect or the level left; settings: dose 10-40 mg/kg, time 1 weeks
# Leishmania donovani [25] = assay: Antileishmanial activity against amastigote form of Leishmania donovani infected in BALB/c mouse assessed as inhibition of parasite growth in liver at 40 mg/kg, po measured after 1 week post treatment by geimsa staining based analysis relative to control; assay type: functional; parameters: scale not given: the % may be the effect or the level left; settings: time 1 weeks
# Leishmania donovani [26] = assay: Antileishmanial activity against amastigote form of Leishmania donovani infected in BALB/c mouse assessed as inhibition of parasite growth in spleen at 40 mg/kg, po measured after 1 week post treatment by geimsa staining based analysis relative to control; assay type: functional; parameters: scale not given: the % may be the effect or the level left; settings: time 1 weeks
# Leishmania donovani [27] = assay: Antileishmanial activity against Leishmania donovani promastigotes at 25 uM measured after 48 hrs by MTT assay relative to control; assay type: functional
# [28] = Selectivity index, ratio of CC50 for mouse J774 macrophage to IC50 for Leishmania donovani amastigotes infected in J774 macrophage; assay type: toxicity; settings: J774 macrophages, read-out: Ratio CC50/IC50
# Leishmania donovani [29] = assay: Antileishmanial activity against Leishmania donovani infected in golden hamster assessed as inhibition of parasite growth in liver at 40 mg/kg, po administered for 7 days and measured after 28 days by giemsa staining based analysis relative to control; assay type: functional; parameters: scale not given: the % may be the effect or the level left; settings: time 28 day
# [30] = Stability of the compound in stimulated gastric fluid at 10 ug/ml at pH 1.2 measured upto 120 min by HPLC analysis; assay type: ADME; settings: simulated gastric fluid, at 10 µg/mL, read-out: Stability
# [31] = Toxicity in golden hamster infected with Leishmania donovani assessed as reduction in serum AST level at 30 mg/kg ,po and measured after 28 days post infection (reference value: 82.72 IU/L); assay type: organism-based, Mesocricetus auratus; settings: in vivo, 672 h, time 28 day
# [32] = Renal toxicity in golden hamster assessed as effect on urea level at 30 mg/kg, po measured after 28 days post infection; assay type: organism-based, Mesocricetus auratus; settings: in vivo, 672 h, time 28 day
# [33] = Renal toxicity in golden hamster assessed as effect on creatinine level at 30 mg/kg, po measured after 28 days post infection; assay type: organism-based, Mesocricetus auratus; settings: in vivo, 672 h, time 28 day
# [34] = Toxicity in golden hamster infected with Leishmania donovani assessed as reduction in serum ALT level at 30 mg/kg ,po and measured after 28 days post infection (reference value: 81.58 IU/L); assay type: organism-based, Mesocricetus auratus; settings: in vivo, 672 h, time 28 day
# Leishmania donovani [35] = assay: Antileishmanial activity against Leishmania donovani infected in golden hamster assessed as elimination of organ parasite burden at 30 mg/kg, po administered for 7 days and measured after 28 days by giemsa staining based analysis relative to control; assay type: functional; settings: time 28 day
smiles,measurement,setting,value
CCn1c(-c2ccc(OCC(=O)Nc3ccccc3)cc2)nc2ccccc2c1=O,Activity,[1],100.8 IU/L
same,Activity,Leishmania donovani [2],75.7%
same,Activity,Leishmania donovani [3],28.1%
same,Activity,[4],Non-Toxic
same,Activity,Leishmania donovani [5],53.9%
same,fold change (FC),Splenocyte [6],2.03
same,"remaining at 2 h, 10 ug/ml",[7],91.6%
same,IC50,Leishmania donovani [8],6.02 µM
same,CC50,J774 [9],72.9 µM
same,"remaining at 2 h, 10 ug/ml",[10],89.6%
same,Activity,J774 [11],84.82%
same,Activity,J774 [12],77.94%
same,Activity,Leishmania donovani [13],80.66%
same,Activity,J774 [14],42.29%
same,Activity,[15],Non-Toxic
same,Activity,[16],Non-Toxic
same,Activity,Leishmania donovani [17],53.3%
same,Activity,Leishmania donovani [18],77.1%
same,Activity,[19],Non-Toxic
same,Activity,Leishmania donovani [20],29.8%
same,Activity,Leishmania donovani [21],54.4%
same,IC50,Leishmania donovani [22],5.76 µM
same,Activity,[23],119.82 IU/L
same,Activity,Splenocyte [24],23.68%
same,Activity,Leishmania donovani [25],77.3%
same,Activity,Leishmania donovani [26],74.1%
same,Activity,Leishmania donovani [27],84.61%
same,selectivity ratio,[28],12.1
same,Activity,Leishmania donovani [29],46.1%
same,"remaining at 2 h, 10 ug/ml",[30],88.8%
CCCCCCCCCCCCCCCCOP(=O)([O-])OCC[N+](C)(C)C [MILTEFOSINE],Activity,[31],25 IU/L
same,IC50,Leishmania donovani [8],11 µM
same,CC50,J774 [9],68 µM
same,Activity,[32],Non-Toxic
same,Activity,J774 [11],85.44%
same,Activity,J774 [12],76.74%
same,Activity,[33],Non-Toxic
same,Activity,J774 [14],53.21%
same,Activity,Leishmania donovani [17],98.51%
same,Activity,Leishmania donovani [21],97.23%
same,IC50,Leishmania donovani [22],6.91 µM
same,Activity,[34],20 IU/L
same,Activity,Leishmania donovani [35],100%
same,selectivity ratio,[28],6.21
